This data set can be described thus: Stability in the stomach: hydrolysis rate at pH 2.0. It counts as physicochemical. The conditions noted are these: 1% solution, 10 mmol/L hydrochloric acid, pH 2.0, 37° C. The method, then:
The stability of a substance in the gastric passage can be simulated by determining the hydrolysis rate at pH 2.0. Sucrose and 1-kestose are used as controls.
In each case a 1% solution of the trisaccharides (DP 3) from Example 4 is incubated with 10 mmol/L hydrochloric acid, pH 2.0 at 37° C. for 3 h. Samples are taken from the reaction mixture after 60, 120 and 180 min and are analyzed by basic anion exchange chromatography, HPAEC.

With `OCC1O[C@H](OC[C@@H](O)[C@@H](O)[C@H](O)C(O)CO)C(O)C(O[C@@H]2OC(CO)[C@H](O)C(O)C2O)[C@@H]1O` (mixture of isomers) [β-1,3-Galactosyl isomalt, β-D-galactosyl-(1→3)-α-D-glucosyl-(1→6)-D-sorbitol(β-1,3-galactosyl-1,6-GPS) and β-D-galactosyl-(1→3)-α-D-glucosyl-(1→1)-D-mannitol(β-1,3-galactosyl-1,1-GPM)], the “Hydrolysis rate [%]” value is recorded as 0% (incubation time 0 min), 0% (incubation time 60 min), 0% (incubation time 120 min) and less than 1% (incubation time 180 min).

For the origin of these results see patent publication US20060008574A1, “Galactosyl isomalt, method for production and use thereof” (priority 2002, published 2006).
